Molecular target: thioredoxin-1 (Trx) (Homo sapiens, UniProt P10599)
Test: insulin reduction assay with pure human Trx preincubated with PMX464
Type: biochemical

thioredoxin-1 (Trx), sequence (P10599 2-105): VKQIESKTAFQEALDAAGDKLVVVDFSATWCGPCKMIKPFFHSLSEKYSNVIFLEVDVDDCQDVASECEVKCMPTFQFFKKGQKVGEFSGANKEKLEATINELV

## O=C1C=CC(O)(c2nc3ccccc3s2)C=C1 [PMX464, 4-(benzothiazol-2-yl)-4-hydroxycyclohexa-2,5-dien-1-one hydrate]
  IC50: 20 µM
